ChEMBL document CHEMBL4043168, “The design and SAR of a novel series of 2-aminopyridine based LRRK2 inhibitors” (Bioorg Med Chem Lett, 2017)

How the values were obtained:
[1] = target: Kinase suppressor of Ras 1 (Homo sapiens) (UniProt Q8IVT5); assay: Inhibition of KSR1 activation Loop (SKNVFYDNGK) in human PBMC at 1 uM
[2] = target: Dual specificity mitogen-activated protein kinase kinase 2 (Homo sapiens) (UniProt P36507); assay: Inhibition of MAP2K2 conserved Lys2 (IMHRDVKPSNILVNSR) in human PBMC at 0.1 uM
[3] = target: T1, Serine/threonine-protein kinase 3 (Homo sapiens) (UniProt Q13188); assay: Inhibition of MST2 conserved Lys2 (DIKAGNILLNTEGHAK) in human PBMC at 1 uM
T1 sequence (whole entry): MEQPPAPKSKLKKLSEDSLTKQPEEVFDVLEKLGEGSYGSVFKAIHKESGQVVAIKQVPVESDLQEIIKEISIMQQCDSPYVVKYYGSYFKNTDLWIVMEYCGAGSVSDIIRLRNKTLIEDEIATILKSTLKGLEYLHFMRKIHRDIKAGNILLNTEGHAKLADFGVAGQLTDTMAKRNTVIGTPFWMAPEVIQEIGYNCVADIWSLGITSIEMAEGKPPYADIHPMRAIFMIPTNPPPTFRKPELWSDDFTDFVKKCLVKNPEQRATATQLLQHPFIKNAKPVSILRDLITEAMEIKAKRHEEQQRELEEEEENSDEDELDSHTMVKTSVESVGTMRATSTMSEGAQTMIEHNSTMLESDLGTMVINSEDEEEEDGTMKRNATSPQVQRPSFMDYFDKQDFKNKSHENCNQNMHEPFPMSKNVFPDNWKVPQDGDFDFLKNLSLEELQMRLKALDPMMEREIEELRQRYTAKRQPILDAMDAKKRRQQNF

[4] = target: T2, Phosphatidylinositol 4,5-bisphosphate 3-kinase catalytic subunit delta isoform (Homo sapiens) (UniProt O00329); assay: Inhibition of PIK3CD ATP binding site (TKVNWLAHNVSKDNRQ) in human PBMC at 1 uM
T2 sequence (whole entry): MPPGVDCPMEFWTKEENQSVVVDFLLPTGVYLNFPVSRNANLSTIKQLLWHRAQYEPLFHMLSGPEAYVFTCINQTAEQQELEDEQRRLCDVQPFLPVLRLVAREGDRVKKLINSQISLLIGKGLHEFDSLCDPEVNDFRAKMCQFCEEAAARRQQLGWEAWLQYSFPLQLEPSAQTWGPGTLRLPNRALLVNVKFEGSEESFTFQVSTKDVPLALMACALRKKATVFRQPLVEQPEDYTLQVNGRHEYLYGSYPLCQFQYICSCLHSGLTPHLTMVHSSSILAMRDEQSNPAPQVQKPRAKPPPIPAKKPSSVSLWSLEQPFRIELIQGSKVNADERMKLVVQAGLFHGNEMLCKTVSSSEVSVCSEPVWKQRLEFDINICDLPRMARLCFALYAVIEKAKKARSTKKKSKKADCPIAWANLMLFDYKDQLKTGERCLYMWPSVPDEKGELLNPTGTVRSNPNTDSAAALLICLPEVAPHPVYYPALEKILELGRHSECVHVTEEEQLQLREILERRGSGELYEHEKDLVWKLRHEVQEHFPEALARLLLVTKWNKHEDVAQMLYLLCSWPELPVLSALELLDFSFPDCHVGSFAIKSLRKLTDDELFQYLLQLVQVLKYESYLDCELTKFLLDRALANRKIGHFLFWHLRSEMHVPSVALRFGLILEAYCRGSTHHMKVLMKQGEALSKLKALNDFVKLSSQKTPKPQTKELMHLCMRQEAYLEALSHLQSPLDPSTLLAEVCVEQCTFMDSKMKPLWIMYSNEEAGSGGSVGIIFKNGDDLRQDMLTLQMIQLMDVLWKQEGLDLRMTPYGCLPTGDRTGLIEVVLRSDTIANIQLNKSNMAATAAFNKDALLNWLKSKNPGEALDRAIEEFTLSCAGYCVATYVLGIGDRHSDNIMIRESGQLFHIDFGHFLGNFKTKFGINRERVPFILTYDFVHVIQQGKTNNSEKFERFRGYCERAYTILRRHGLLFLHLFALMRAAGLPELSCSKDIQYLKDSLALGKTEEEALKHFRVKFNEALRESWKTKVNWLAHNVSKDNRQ

[5] = target: Ribosomal protein S6 kinase alpha-1 (Homo sapiens) (UniProt Q15418); assay: Inhibition of RSK1 domain2 conserved Lys2 (DLKPSNILYVDESGNPECLR) in human PBMC at 0.1 uM
[6] = target: Serine/threonine-protein kinase Nek4 (Homo sapiens) (UniProt P51957); assay: Inhibition of NEK4 conserved Lys2 (DLKTQNVFLTR) in human PBMC at 0.1 uM
[7] = target: Proto-oncogene tyrosine-protein kinase Src (Homo sapiens) (UniProt P12931); assay: Inhibition of SRC ATP binding site (QGAKFPIKWTAPEAALYGR) in human PBMC at 1 uM
[8] = target: T1, Serine/threonine-protein kinase 3 (Homo sapiens); assay: Inhibition of MST2 conserved Lys2 (DIKAGNILLNTEGHAK) in human PBMC at 0.1 uM
[9] = target: Mitogen-activated protein kinase kinase kinase 15 (Homo sapiens) (UniProt Q6ZN16); assay: Inhibition of MAP3K15 conserved Lys1 (IAIKEIPER) in human PBMC at 1 uM
[10] = target: Serine/threonine-protein kinase 32C (Homo sapiens) (UniProt Q86UX6); assay: Inhibition of YANK3 conserved Lys2 (DVKPDNILLDER) in human PBMC at 1 uM
[11] = target: Interleukin-1 receptor-associated kinase 1 (Homo sapiens) (UniProt P51617); assay: Inhibition of IRAK1 conserved Lys2 (AIQFLHQDSPSLIHGDIKSSNVLLDER) in human PBMC at 0.1 uM
[12] = target: Serine/threonine-protein kinase Sgk3 (Homo sapiens) (UniProt Q96BR1); assay: Inhibition of SGK3 conserved Lys1 (FYAVKVLQK) in human PBMC at 1 uM

Serine/threonine-protein kinase 32C (Homo sapiens), sequence (Q86UX6 whole entry): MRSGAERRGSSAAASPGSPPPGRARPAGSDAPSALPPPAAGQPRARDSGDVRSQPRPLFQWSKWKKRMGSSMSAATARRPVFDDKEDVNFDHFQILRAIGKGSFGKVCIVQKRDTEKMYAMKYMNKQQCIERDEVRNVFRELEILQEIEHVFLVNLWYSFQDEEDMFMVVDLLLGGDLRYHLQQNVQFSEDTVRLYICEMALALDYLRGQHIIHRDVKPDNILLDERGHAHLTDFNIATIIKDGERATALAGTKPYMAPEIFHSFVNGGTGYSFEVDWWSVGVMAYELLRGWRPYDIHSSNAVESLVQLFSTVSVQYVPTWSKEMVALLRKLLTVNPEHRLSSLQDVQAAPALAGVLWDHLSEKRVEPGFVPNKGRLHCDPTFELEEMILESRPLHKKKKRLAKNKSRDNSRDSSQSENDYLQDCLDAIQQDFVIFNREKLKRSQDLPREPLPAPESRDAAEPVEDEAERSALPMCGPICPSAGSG
Kinase suppressor of Ras 1 (Homo sapiens), sequence (Q8IVT5 whole entry): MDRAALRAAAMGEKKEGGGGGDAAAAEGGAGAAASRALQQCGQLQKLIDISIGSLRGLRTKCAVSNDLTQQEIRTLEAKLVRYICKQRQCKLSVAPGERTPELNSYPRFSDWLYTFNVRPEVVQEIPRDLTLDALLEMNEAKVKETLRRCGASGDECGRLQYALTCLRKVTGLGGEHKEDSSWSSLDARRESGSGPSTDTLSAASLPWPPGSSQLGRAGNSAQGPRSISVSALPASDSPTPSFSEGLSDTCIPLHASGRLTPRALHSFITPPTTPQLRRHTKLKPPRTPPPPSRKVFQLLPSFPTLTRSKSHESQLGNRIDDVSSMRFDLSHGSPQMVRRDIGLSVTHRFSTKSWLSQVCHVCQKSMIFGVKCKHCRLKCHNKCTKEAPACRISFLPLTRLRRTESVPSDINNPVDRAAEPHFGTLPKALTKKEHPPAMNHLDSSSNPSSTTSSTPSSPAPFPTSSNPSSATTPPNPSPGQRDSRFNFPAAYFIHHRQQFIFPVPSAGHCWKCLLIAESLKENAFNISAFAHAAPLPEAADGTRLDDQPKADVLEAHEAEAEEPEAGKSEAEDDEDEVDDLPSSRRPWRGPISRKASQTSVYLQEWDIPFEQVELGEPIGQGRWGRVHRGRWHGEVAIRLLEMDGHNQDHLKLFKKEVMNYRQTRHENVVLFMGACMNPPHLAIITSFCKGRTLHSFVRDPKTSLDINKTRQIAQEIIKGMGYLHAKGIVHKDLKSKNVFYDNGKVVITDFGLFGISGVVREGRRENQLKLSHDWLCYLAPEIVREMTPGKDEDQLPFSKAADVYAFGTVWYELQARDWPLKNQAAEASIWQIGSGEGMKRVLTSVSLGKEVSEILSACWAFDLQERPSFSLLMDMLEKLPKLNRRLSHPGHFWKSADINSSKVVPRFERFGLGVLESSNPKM
Dual specificity mitogen-activated protein kinase kinase 2 (Homo sapiens), sequence (P36507 whole entry): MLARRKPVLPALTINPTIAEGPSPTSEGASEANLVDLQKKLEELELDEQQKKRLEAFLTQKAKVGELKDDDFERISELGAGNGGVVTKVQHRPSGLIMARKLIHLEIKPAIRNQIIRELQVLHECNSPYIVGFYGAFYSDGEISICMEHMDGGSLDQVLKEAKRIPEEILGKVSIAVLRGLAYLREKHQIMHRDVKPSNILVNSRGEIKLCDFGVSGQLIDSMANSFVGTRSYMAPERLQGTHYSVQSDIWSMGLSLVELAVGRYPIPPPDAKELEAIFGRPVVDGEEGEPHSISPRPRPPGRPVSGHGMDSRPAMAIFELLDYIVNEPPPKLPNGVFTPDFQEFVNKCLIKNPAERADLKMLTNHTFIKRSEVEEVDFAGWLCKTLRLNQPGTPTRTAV
Serine/threonine-protein kinase Nek4 (Homo sapiens), sequence (P51957 whole entry, looked up): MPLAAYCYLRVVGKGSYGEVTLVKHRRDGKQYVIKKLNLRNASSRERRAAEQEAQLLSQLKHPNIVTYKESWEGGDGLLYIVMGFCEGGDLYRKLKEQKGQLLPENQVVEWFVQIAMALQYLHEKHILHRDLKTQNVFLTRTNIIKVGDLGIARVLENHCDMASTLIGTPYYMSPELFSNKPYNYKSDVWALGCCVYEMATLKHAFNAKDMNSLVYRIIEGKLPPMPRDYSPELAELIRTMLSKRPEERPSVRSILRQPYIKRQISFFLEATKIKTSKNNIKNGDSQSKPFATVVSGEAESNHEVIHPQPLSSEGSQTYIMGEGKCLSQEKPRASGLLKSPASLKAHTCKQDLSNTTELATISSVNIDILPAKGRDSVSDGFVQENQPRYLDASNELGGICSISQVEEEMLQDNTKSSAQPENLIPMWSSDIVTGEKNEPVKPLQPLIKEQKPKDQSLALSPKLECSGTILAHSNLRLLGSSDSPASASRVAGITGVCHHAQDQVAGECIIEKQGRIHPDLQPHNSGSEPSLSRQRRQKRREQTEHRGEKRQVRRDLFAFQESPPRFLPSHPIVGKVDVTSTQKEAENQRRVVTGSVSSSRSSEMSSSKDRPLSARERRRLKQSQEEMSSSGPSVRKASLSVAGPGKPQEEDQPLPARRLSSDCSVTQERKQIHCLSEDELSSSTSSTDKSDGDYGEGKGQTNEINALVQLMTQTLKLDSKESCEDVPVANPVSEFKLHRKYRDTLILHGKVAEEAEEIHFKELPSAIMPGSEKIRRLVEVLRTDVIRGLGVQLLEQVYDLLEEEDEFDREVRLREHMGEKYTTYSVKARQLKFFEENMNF
Mitogen-activated protein kinase kinase kinase 15 (Homo sapiens), sequence (Q6ZN16 whole entry): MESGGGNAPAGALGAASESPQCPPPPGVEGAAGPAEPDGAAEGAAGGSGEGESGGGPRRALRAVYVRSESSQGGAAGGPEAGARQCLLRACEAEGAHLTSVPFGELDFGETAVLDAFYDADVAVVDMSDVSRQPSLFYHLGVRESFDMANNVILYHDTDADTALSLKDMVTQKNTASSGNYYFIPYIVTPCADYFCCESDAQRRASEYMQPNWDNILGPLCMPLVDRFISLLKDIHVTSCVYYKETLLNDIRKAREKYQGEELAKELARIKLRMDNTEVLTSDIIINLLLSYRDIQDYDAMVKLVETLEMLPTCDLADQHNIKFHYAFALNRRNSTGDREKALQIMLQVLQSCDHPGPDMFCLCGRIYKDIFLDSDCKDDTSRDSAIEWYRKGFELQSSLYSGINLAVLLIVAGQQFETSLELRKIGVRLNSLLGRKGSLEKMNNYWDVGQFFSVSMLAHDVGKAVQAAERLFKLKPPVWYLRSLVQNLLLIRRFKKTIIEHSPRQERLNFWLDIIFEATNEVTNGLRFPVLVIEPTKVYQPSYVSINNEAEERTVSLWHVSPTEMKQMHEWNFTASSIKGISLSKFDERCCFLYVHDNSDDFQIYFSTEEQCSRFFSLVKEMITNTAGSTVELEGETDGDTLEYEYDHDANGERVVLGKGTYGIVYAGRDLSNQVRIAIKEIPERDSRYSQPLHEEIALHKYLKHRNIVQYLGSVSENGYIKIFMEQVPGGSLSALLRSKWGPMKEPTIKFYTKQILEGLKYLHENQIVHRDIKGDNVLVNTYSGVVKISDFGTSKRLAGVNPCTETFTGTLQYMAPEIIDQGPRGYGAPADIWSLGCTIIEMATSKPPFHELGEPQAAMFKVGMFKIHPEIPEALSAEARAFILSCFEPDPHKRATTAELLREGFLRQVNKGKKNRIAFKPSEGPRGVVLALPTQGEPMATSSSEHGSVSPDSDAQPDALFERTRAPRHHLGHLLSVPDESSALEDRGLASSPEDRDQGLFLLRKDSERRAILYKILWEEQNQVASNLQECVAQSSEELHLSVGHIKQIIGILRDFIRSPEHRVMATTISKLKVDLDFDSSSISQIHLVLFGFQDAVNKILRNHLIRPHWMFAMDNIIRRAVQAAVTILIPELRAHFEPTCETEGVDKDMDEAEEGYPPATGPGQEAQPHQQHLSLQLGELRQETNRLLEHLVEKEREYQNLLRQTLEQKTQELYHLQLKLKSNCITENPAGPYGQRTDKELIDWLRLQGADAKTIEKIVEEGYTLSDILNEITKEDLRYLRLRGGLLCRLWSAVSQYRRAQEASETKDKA
Ribosomal protein S6 kinase alpha-1 (Homo sapiens), sequence (Q15418 whole entry, the tested form may be a part): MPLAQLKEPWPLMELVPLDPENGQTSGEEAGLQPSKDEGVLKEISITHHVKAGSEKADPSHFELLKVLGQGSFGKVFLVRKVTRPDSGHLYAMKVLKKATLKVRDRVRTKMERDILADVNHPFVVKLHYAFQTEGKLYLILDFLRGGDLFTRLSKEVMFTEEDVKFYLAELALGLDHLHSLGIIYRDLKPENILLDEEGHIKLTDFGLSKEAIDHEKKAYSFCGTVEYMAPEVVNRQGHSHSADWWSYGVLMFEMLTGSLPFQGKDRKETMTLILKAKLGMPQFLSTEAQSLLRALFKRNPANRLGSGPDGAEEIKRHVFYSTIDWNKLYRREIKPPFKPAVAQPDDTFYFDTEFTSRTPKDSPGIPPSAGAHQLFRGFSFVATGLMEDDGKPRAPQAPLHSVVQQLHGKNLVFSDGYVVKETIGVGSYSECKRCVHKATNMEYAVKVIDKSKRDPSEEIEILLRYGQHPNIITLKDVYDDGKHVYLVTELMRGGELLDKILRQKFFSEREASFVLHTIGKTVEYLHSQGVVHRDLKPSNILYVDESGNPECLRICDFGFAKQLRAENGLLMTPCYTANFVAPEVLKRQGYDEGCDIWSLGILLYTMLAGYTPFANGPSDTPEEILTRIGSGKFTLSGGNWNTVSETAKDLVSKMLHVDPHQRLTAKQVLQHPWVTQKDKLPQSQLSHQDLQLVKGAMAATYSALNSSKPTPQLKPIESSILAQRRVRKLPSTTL

SMILES: CC(C)n1cc(-c2cc(-c3ccc(CN4CCOCC4)cc3)cnc2N)nn1
- inhibition [1]: 20.1%
- inhibition [2]: -5.6%
- inhibition [3]: 0%
- inhibition [4]: 4%
- inhibition [5]: 8.3%
- inhibition [6]: 5.6%
- inhibition [7]: -2.3%
- inhibition [8]: 1.3%
- inhibition [9]: -3.3%
- inhibition [10]: -2.1%
- inhibition [11]: 22.7%
- inhibition [12]: -2.2%
